From paper PMC8162404, “Proteomimetic surface fragments distinguish targets by function” (Chemical Science, 2020)
Where two headings read alike, the source gives them in different places.

What was measured:
Test in all cases: Pull-down assay with immobilized protein and LSM libraries
S100B = target: T1, S100B (Homo sapiens, UniProt P04271); type: binding; conditions: 1:1 binding assumed, read-out: Surface mapping KD (apparent)
T1 construct: made in house; host or cells: Escherichia coli BL21(DE3)
T1 sequence (P04271 1-92): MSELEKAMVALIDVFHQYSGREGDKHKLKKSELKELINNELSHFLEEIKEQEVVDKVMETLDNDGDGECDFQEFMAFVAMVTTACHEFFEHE
Method in brief: (§1)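 Buffers were HEPES pH 7.4 with 150 mM NaCl, plus 1 mM TCEP and 1 mM CaCl2 (50 mM HEPES) for S100A4 and S100B, 1 mM TCEP for Gal-1, and no additive for RecQ-WH. Immobilized protein at 64 µM was equilibrated 30 min with the LSM sublibrary, and unbound probes were measured by LC-MS.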

Gal-1 = target: T2, Gal-1 (Homo sapiens, UniProt P09382); type: binding; conditions: 1:1 binding assumed, read-out: Surface mapping KD (apparent)
T2 construct: made in house; host or cells: E. coli BL21(DE3)
Method in brief: as §1

CaM = target: T3, CaM (Bos taurus, UniProt P62157); type: binding, bovine; conditions: 1:2 stoichiometry assumed, read-out: Surface mapping KD (apparent)
T3 construct: made in house; host or cells: E. coli BL21 (DE3)
Protocol: Pull-down assays with immobilized test proteins and foldameric LSM libraries were carried out. Proteins were equilibrated with LSM probes, and equilibrium bound fractions (FB) were determined from the unbound fractions measured by HPLC-MS methods. Hits were corrected with background binding of the resin. The protocol allowed all binding events to equilibrate irrespective of affinity, specificity, and binding kinetics. This was essential to judge overall druggability and promiscuity. Importantly, the concentration of protein and the total concentration of foldameric LSMs were equimolar, which minimized competition between the probes. This experimental setup approximated independent binding of individual library members. Results were visualized as heat maps of dissociation constants (Fig. 3).
Pull-down assay and data analysis
Pull-down assay. LSM sublibraries were screened separately as previously described.(2) Experiments were performed in the following buffers: (i) 20 mM pH 7.4 HEPES, 150 mM NaCl, 5 mM CaCl2 for CaM; (ii) 50 mM pH 7.4 HEPES, 150 mM NaCl, 1 mM TCEP, 1 mM CaCl2 for S100 proteins; (iii) 20 mM pH 7.4 HEPES, 150 mM NaCl, 1 mM TCEP for Gal-1 and (iv) 20 mM pH 7.4 HEPES, 150 mM NaCl for RecQ-WH. Assays were performed in paper filter spin cups (Thermo Scientific) with sample volumes of 100 µl. Hexahistidine-tagged proteins were immobilized on previously washed Co-NTA resin (TALON, Takara Bio USA, Inc., […]
LSM sublibrary was added, in which each of the 64 library members were used at a concentration of 1 µM. Samples were incubated at room temperature for 30 min with shaking at 100 rpm. Then, samples were centrifuged at 1000 rpm for 2 min and washed with 100 µl pull-down buffer to remove unbound compounds.
The control experiments were performed using the same compounds and the resin but without the immobilized protein. In case of competitive assays, competitor peptides were added to LSM sublibrary samples in 200 µM final concentration. In the case of Gal-1, lactose (competitor) was used in a concentration of 10 mM. Experiments were performed at least twice. Mean […]
LC-MS methods and parameters. HPLC/ESI-MS analysis was used to characterize the samples from the pull-down assay. LC-MS analysis was performed with a Thermo Scientific Dionex UltiMate 3000 HPLC system interfaced to an LTQ ion trap mass spectrometer (Thermo Electron Corp., San Jose, CA, USA). Samples were injected onto an Aeris Widepore XB-C18 (250 x 4.6 mm) analytical HPLC column using gradient elution 5-80 % solution B during 25 minutes. For pull-down samples, eluent composition was 0.1% acetic acid in distilled water (Solution A) and 0.1% acetic acid in acetonitrile (solution B). Mass spectra were acquired in full scan mode from 200 to 2000 m/z range. For overlapping peaks, selective reaction monitoring (SRM) was […]
MS data analysis. Thermo Xcalibur 2.2 software was used for peak identification and integration. The majority of the foldameric fragments could be resolved independently via HPLC-MS/MS measurements based on molecular weight, MS fragmentation pattern and retention time. Peaks of some foldamers with β3-hIle or β3-hLeu in position R2 could not be resolved, these were integrated and averaged. In the processing method, each sample component was associated to a chromatographic peak based on previously identified mass (m/z) and retention time (ref (2) and Table S7-10). Using ICIS peak detection algorithm, the general detection and integration criteria were: smoothing points: 5, baseline window: 80, area noise factor: 5, peak noise factor: 10. Using these processing setups, all raw data files were reprocessed together and analyzed. Errors in peak identification during the automatic processing were corrected manually.
Calculation of the discussed parameters
1. Bound fractions (FB.) were calculated from the HPLC-MS intensity loss of the LSM probes compared to the control where no protein was immobilized to the resin: […]

S100A4 = target: T4, S100A4 (Homo sapiens, UniProt P26447); type: binding; conditions: 1:1 binding assumed, read-out: Surface mapping KD (apparent)
T4 construct: made in house; host or cells: Escherichia coli BL21(DE3)
Method in brief: as §1

T2 sequence (P09382 whole entry): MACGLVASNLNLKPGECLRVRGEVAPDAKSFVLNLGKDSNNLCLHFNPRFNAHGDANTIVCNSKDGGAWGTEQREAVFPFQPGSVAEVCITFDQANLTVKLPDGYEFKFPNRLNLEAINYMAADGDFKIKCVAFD
T4 sequence (P26447 whole entry): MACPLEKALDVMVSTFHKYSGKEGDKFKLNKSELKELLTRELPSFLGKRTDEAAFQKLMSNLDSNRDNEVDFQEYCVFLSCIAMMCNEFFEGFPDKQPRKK

Kd (S100B; H12 library) [µM]	Kd (Gal-1; H12 library) [µM]	Kd (CaM; H12 library) [µM]	Kd (S100A4; H12 library) [µM]	Kd (S100B; H14 library) [µM]	Kd (Gal-1; H14 library) [µM]	Kd (CaM; H14 library) [µM]	Kd (S100A4; H14 library) [µM]	Structure (SMILES)
62	355	234						C[C@@H](CC(=O)N[C@H]1CCC[C@@H]1C(=O)N[C@H]1CCC[C@@H]1C(=O)N[C@H](CC(=O)N[C@H]1CCC[C@@H]1C(=O)N[C@H]1CCC[C@@H]1C(N)=O)Cc1c[nH]c2ccccc12)NC(=O)[C@H]1CCC[C@@H]1NC(=O)[C@H]1CCC[C@@H]1N [H12 AW]
	249		449					CC[C@H](C)[C@@H](CC(=O)N[C@H]1CCC[C@@H]1C(=O)N[C@H]1CCC[C@@H]1C(N)=O)NC(=O)[C@H]1CCC[C@@H]1NC(=O)[C@H]1CCC[C@@H]1NC(=O)C[C@H](CC(=O)O)NC(=O)[C@H]1CCC[C@@H]1NC(=O)[C@H]1CCC[C@@H]1N [H12 DI]
116	341	496						C[C@@H](CC(=O)N[C@H]1CCC[C@@H]1C(=O)N[C@H]1CCC[C@@H]1C(N)=O)NC(=O)[C@H]1CCC[C@@H]1NC(=O)[C@H]1CCC[C@@H]1NC(=O)C[C@H](Cc1ccccc1)NC(=O)[C@H]1CCC[C@@H]1NC(=O)[C@H]1CCC[C@@H]1N [H12 FA]
39	120	236						CC[C@H](C)[C@@H](CC(=O)N[C@H]1CCC[C@@H]1C(=O)N[C@H]1CCC[C@@H]1C(=O)N[C@@H](CCCNC(=N)N)CC(=O)N[C@H]1CCC[C@@H]1C(=O)N[C@H]1CCC[C@@H]1C(N)=O)NC(=O)[C@H]1CCC[C@@H]1NC(=O)[C@H]1CCC[C@@H]1N [H12 IR]
71	250	314						CC[C@H](C)[C@@H](CC(=O)N[C@H]1CCC[C@@H]1C(=O)N[C@H]1CCC[C@@H]1C(N)=O)NC(=O)[C@H]1CCC[C@@H]1NC(=O)[C@H]1CCC[C@@H]1NC(=O)C[C@H](CCCCN)NC(=O)[C@H]1CCC[C@@H]1NC(=O)[C@H]1CCC[C@@H]1N [H12 KI]
146	231	330						N=C(N)NCCC[C@@H](CC(=O)N[C@H]1CCC[C@@H]1C(=O)N[C@H]1CCC[C@@H]1C(N)=O)NC(=O)[C@H]1CCC[C@@H]1NC(=O)[C@H]1CCC[C@@H]1NC(=O)C[C@H](CCCCN)NC(=O)[C@H]1CCC[C@@H]1NC(=O)[C@H]1CCC[C@@H]1N [H12 KR]
116	468	270						CC(C)C[C@@H](CC(=O)N[C@H]1CCC[C@@H]1C(=O)N[C@H]1CCC[C@@H]1C(=O)N[C@H](CC(=O)N[C@H]1CCC[C@@H]1C(=O)N[C@H]1CCC[C@@H]1C(N)=O)C(C)C)NC(=O)[C@H]1CCC[C@@H]1NC(=O)[C@H]1CCC[C@@H]1N [H12 LV]
127	247	342						CSCC[C@@H](CC(=O)N[C@H]1CCC[C@@H]1C(=O)N[C@H]1CCC[C@@H]1C(=O)N[C@H](CC(=O)N[C@H]1CCC[C@@H]1C(=O)N[C@H]1CCC[C@@H]1C(N)=O)C(C)C)NC(=O)[C@H]1CCC[C@@H]1NC(=O)[C@H]1CCC[C@@H]1N [H12 MV]
102	286	178						CSCC[C@@H](CC(=O)N[C@H]1CCC[C@@H]1C(=O)N[C@H]1CCC[C@@H]1C(=O)N[C@H](CC(=O)N[C@H]1CCC[C@@H]1C(=O)N[C@H]1CCC[C@@H]1C(N)=O)Cc1ccc(O)cc1)NC(=O)[C@H]1CCC[C@@H]1NC(=O)[C@H]1CCC[C@@H]1N [H12 MY]
170	412	55						NC(=O)CC[C@@H](CC(=O)N[C@H]1CCC[C@@H]1C(=O)N[C@H]1CCC[C@@H]1C(=O)N[C@H](CC(=O)N[C@H]1CCC[C@@H]1C(=O)N[C@H]1CCC[C@@H]1C(N)=O)Cc1c[nH]c2ccccc12)NC(=O)[C@H]1CCC[C@@H]1NC(=O)[C@H]1CCC[C@@H]1N [H12 QW]
146	231	330						N=C(N)NCCC[C@@H](CC(=O)N[C@H]1CCC[C@@H]1C(=O)N[C@H]1CCC[C@@H]1C(=O)N[C@@H](CCCCN)CC(=O)N[C@H]1CCC[C@@H]1C(=O)N[C@H]1CCC[C@@H]1C(N)=O)NC(=O)[C@H]1CCC[C@@H]1NC(=O)[C@H]1CCC[C@@H]1N [H12 RK]
114	459	41						NC(=O)[C@H]1CCC[C@@H]1NC(=O)[C@H]1CCC[C@@H]1NC(=O)C[C@H](Cc1c[nH]c2ccccc12)NC(=O)[C@H]1CCC[C@@H]1NC(=O)[C@H]1CCC[C@@H]1NC(=O)C[C@H](CO)NC(=O)[C@H]1CCC[C@@H]1NC(=O)[C@H]1CCC[C@@H]1N [H12 SW]
60	385	303						C[C@@H](CC(=O)N[C@H]1CCC[C@@H]1C(=O)N[C@H]1CCC[C@@H]1C(N)=O)NC(=O)[C@H]1CCC[C@@H]1NC(=O)[C@H]1CCC[C@@H]1NC(=O)C[C@H](Cc1c[nH]c2ccccc12)NC(=O)[C@H]1CCC[C@@H]1NC(=O)[C@H]1CCC[C@@H]1N [H12 WA]
56	448	365						C[C@@H](O)[C@@H](CC(=O)N[C@H]1CCC[C@@H]1C(=O)N[C@H]1CCC[C@@H]1C(N)=O)NC(=O)[C@H]1CCC[C@@H]1NC(=O)[C@H]1CCC[C@@H]1NC(=O)C[C@H](Cc1c[nH]c2ccccc12)NC(=O)[C@H]1CCC[C@@H]1NC(=O)[C@H]1CCC[C@@H]1N [H12 WT]
102	286	178						CSCC[C@@H](CC(=O)N[C@H]1CCC[C@@H]1C(=O)N[C@H]1CCC[C@@H]1C(N)=O)NC(=O)[C@H]1CCC[C@@H]1NC(=O)[C@H]1CCC[C@@H]1NC(=O)C[C@H](Cc1ccc(O)cc1)NC(=O)[C@H]1CCC[C@@H]1NC(=O)[C@H]1CCC[C@@H]1N [H12 YM]
128	243	443						NC(=O)[C@H]1CCC[C@@H]1NC(=O)[C@H]1CCC[C@@H]1NC(=O)C[C@H](Cc1ccc(O)cc1)NC(=O)[C@H]1CCC[C@@H]1NC(=O)[C@H]1CCC[C@@H]1NC(=O)C[C@H](Cc1ccc(O)cc1)NC(=O)[C@H]1CCC[C@@H]1NC(=O)[C@H]1CCC[C@@H]1N [H12 YY]
				126	348	126		C[C@@H](CC(=O)N[C@H]1CCCC[C@@H]1C(=O)N[C@H]1CCCC[C@@H]1C(=O)N[C@@H](CCCNC(=N)N)CC(=O)N[C@H]1CCCC[C@@H]1C(N)=O)NC(=O)[C@H]1CCCC[C@@H]1N [H14 AR]
				181	438	91		NCCCC[C@@H](CC(=O)N[C@H]1CCCC[C@@H]1C(N)=O)NC(=O)[C@H]1CCCC[C@@H]1NC(=O)[C@H]1CCCC[C@@H]1NC(=O)C[C@H](CO)NC(=O)[C@H]1CCCC[C@@H]1N [H14 SK]
							371	NC(=O)[C@H]1CCCC[C@@H]1NC(=O)C[C@H](CCC(=O)O)NC(=O)[C@H]1CCCC[C@@H]1NC(=O)[C@H]1CCCC[C@@H]1NC(=O)C[C@H](Cc1ccc(O)cc1)NC(=O)[C@H]1CCCC[C@@H]1N [H14 YE]
